Molecular target: T1, MenD (Escherichia coli, UniProt P17109)
T1 sequence (P17109 1-556): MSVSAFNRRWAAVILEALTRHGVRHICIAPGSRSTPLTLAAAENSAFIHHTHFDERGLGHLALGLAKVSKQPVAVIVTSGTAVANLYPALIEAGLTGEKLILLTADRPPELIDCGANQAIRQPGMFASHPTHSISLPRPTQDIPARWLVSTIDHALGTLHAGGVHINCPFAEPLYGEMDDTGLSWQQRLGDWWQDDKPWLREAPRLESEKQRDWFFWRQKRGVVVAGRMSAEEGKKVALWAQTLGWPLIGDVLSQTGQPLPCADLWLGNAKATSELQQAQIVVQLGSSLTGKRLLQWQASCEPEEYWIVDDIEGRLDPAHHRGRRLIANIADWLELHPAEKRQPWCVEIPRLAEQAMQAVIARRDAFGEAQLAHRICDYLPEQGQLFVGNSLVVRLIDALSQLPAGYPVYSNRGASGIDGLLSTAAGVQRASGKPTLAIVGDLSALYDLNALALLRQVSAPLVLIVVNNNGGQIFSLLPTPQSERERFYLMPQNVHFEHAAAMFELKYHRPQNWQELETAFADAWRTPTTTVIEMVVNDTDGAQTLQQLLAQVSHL
Experiment: MenD activity assay, OD278 decrease
Type: biochemical
Details: 66 nM MenD, 50 μM thiamine pyrophosphate, 660 μM 2-ketoglutarate, 5 mM MgSO4, pH 8.0; chorismate:isochorismate equilibrium mixture

C=C(O[C@H]1C=CC=C(C(=O)O)[C@@H]1O)C(=O)O [isochorismate]
MenD activity assay, OD278 decrease: initial velocities were measured as decrease in OD278 upon MenD consumption of isochorismate
